Data as given in patent US9566281B2 (Westfaelische Wilhelms-Universitaet, priority 2012, dated 2017).
Where “and” joins values, the source holds several entries; their conditions need not be identical. Identical values can stand only once. Like-named read-outs stand apart in the source and are kept apart here.

Columns and labels:
influenza A virus = assay: Synergism of MEK inhibitor with Oseltamivir-carboxylate on A549 cells (combination index, CompuSyn); assay type: cell-based
[1] = system: A/Mallard/Bavaria/01/2006 (MB1, H5N1); assay type: cell-based, influenza A virus; details: MDCK II, MOI 0.001, 24 h treatment, FIG. 6/7
panH1N1 (RB1) = assay type: cell-based, influenza A virus
FPV = assay type: cell-based
colon carcinoma = details: oral administration, mouse model; cited from earlier work
A/Anhui/1/2013 (H7N9) = assay: microbe, parasite or virus in culture; assay type: cell-based, influenza A virus
[2] = patients taking oseltamivir; cited from earlier work
[3] = with Oseltamivir-carboxylate, ratio 1:1, A549
[4] = with Oseltamivir-carboxylate, ratio 1:10, A549

Cn1cnc2c(F)c(Nc3ccc(Br)cc3Cl)c(C(=O)NOCCO)cc21 [AZD-6244]
CI value at ED75 (influenza A virus): 0.2086 and 0.1616 | CI value at ED90 (influenza A virus): 0.2962 and 0.2330 | CI value at ED95 (influenza A virus): 0.3760 and 0.2993

O=C(NOCC1CC1)c1ccc(F)c(F)c1Nc1ccc(I)cc1Cl [CI-1040]
CI value at ED75 (influenza A virus; [3]): 0.4010 | CI value at ED90 (influenza A virus; [3]): 0.3987 | CI value at ED95 (influenza A virus; [3]): 0.4412 | antiviral potency in cell culture [1]: highly potent | antiviral potency (panH1N1 (RB1)): potent | antiviral potency (FPV): potent

CC(=O)Nc1cccc(-n2c(=O)n(C3CC3)c(=O)c3c(Nc4ccc(I)cc4F)n(C)c(=O)c(C)c32)c1 [GSK-1120212]
CI value at ED75 (influenza A virus): 0.4758 | CI value at ED90 (influenza A virus): 0.4648 | CI value at ED95 (influenza A virus): 0.4576

O=C(NOCC1CC1)c1ccc(F)c(F)c1Nc1ccc(I)cc1Cl [PD184352, 2-(2-chloro-4-iodo-phenylamino)-N-cyclopropylmethoxy-3,4-difluoro-benzamide]
growth of colon carcinoma (colon carcinoma): efficiently inhibit

O=C(NOC[C@H](O)CO)c1ccc(F)c(F)c1Nc1ccc(I)cc1F [PD-0325901]
antiviral potency in cell culture [1]: highly potent | antiviral potency (panH1N1 (RB1)): potent | antiviral potency (FPV): potent

CCCS(=O)(=O)Nc1ccc(F)c(C(=O)c2c[nH]c3ncc(-c4ccc(Cl)cc4)cc23)c1F [PLX-4032]
CI value at ED75 (influenza A virus; [3]): 0.3472 | CI value at ED90 (influenza A virus; [3]): 0.4332 | CI value at ED95 (influenza A virus; [3]): 0.5036 | CI value at ED75 (influenza A virus; [4]): 0.2305 | CI value at ED90 (influenza A virus; [4]): 0.2367 | CI value at ED95 (influenza A virus; [4]): 0.2413 | antiviral potency (A/Anhui/1/2013 (H7N9); A549, H7N9, FIGS. 13A and B): highly potent | EC50 (A/Anhui/1/2013 (H7N9); Influenza A virus, H7N9, A549, 24 h): 12 µM

oseltamivir
patients experiencing nausea and vomiting [2]: 10-15%
